Data reported in patent publication US20080161274A1, “Compounds and methods for inhibition of bone loss” (Resolvyx Pharmaceuticals, Inc., priority 2006, published 2008).

Experiments:
[1] = test system: mice with established Type II collagen arthritis; assay: 11 day male DBA/1J mouse established Type II collagen arthritis; type: in vivo; conditions: for clinical symptoms of arthritis (clinical scoring in the paws) / bone loss (histologic scoring) / pannus formation (histologic scoring): mice n=16; for clinical symptoms of arthritis (clinical scoring in the paws): vs arthritic control, FIG. 2a; for bone loss (histologic scoring) / pannus formation (histologic scoring): FIG. 2b
Description: Male DBA/1J mice (7-9 weeks old on arrival; at least 7 weeks old at time of first immunization) were housed 5 per cage and were acclimated for enough days after arrival such that all animals were at least 7 weeks old at start of study.
Mice were anesthetized with Isoflurane and given intradermal collagen (2 mg/ml) injections at the base of the tail in a volume of 150 μl (D0 and D21). On days 21-35, onset of arthritis occurred and mice were randomized into treatment groups. Randomization into each group was done after swelling was obviously established in at least one paw, and attempts were made to assure approximately equal mean scores across the groups at time of enrollment. Treatment was initiated after enrollment and continued every day for a total of 10 days as outlined in Table 3. During the ten days of treatment, clinical scores were given for each of the paws (right front, left front, right rear, and left rear) according to the scoring methods provided below.
• 0 normal • 1 1 hind or fore paw joint affected or minimal diffuse erythema and swelling • 2 2 hind or fore paw joints affected or mild diffuse erythema and swelling • 3 3 hind or fore paw joints affected or moderate diffuse erythema and swelling • 4 Marked diffuse erythema and swelling, or 4 digit joints affected • 5 Severe diffuse erythema and severe swelling entire paw, unable to flex digits
All dose solutions were prepared to deliver 10 ml/kg (0.3 ml/30 g mouse). On day 11 of arthritis, animals were euthanized, and both fore and hind limbs with knees were removed, placed into formalin and then processed for microscopy. Following 1-2 days in fixative and then 4-5 days in decalcifier, the joints were processed, embedded, sectioned and stained with toluidine blue. (Only fore and hind paws and knees were initially processed—6 joints/mouse.)
When scoring paws or ankles from mice with lesions of type II collagen arthritis, severity of changes as well as number of individual joints affected must be considered. When only 1-3 joints of the paws or ankles out of a possibility of numerous metacarpal/metatarsal/digit or tarsal/tibiotarsal joints were affected, an arbitrary assignment of a maximum score of 1, 2 or 3 from the scoring scale below was given depending on severity of changes. If more than 3 joints were involved, the full scoring scale below was applied only to the most severely affected/majority of joints.
• 0 Normal • 1 Minimal infiltration of pannus in cartilage and subchondral bone • 2 Mild infiltration with marginal zone destruction of hard tissue in affected joints • 3 Moderate infiltration with moderate hard tissue destruction in affected joints • 4 Marked infiltration with marked destruction of joint architecture, most joints • 5 Severe infiltration associated with total or near total destruction of joint architecture, affects all joints
• 0 Normal • 1 Minimal—small areas of resorption, not readily apparent on low magnification, rare osteoclasts in affected joints • 2 Mild—more numerous areas of resorption, not readily apparent on low magnification, osteoclasts more numerous in affected joints • 3 Moderate—obvious resorption of medullary trabecular and cortical bone without full thickness defects in cortex, loss of some medullary trabeculae, lesion apparent on low magnification, osteoclasts more numerous in affected joints • 4 Marked—Full thickness defects in cortical bone, often with distortion of profile of remaining cortical surface, marked loss of medullary bone, numerous osteoclasts, affects most joints • 5 Severe—Full thickness defects in cortical bone and destruction of joint architecture of all joints
Histologic parameters (mean ±SE) for each group were analyzed for differences using the Chi Square Test and one way ANOVA. Significance was set at p≦0.05.

rats with CIA = assay: Rat collagen-induced arthritis (CIA), knee histopathology scoring; type: in vivo; conditions: rats n=9
Description: Female Lewis rats were anesthetized with 3-5% isoflurane and arthritis was induced by intradermal injection of 0.3 mL (100 μL at three different sites) of an emulsion containing 1.5 mg/mL of type II bovine collagen, CII (Elastin Products Inc., Cat# CM276), in incomplete Freund's adjuvant (IFA) at the base of the tail on day 0 and 6. Control rats were injected with an equal amount of IFA only.
The volume of both hind paws were measured using a water displacement plethysmometer (Ugo Basile, Biological Research Apparatus, Italy), and the onset of arthritis was indicated by increased paw volume, which appeared approximately on day 11 post injection. Both paw volumes and body weights were measured throughout the study every 2-3 days. Nineteen to twenty-one days after CII injection, the rats were euthanized with CO2. Blood was collected by cardiac puncture and serum was saved.
Bovine Type II collagen for tissue culture was purchased from Chondrex (Cat# 2022) and was reconstituted according to the manufacturer's instructions. All data were processed and analyzed by t-test using GraphPad Prism software.
After the animals were euthanized, both hind paws and knees were removed, hind paws were weighed, and the paws and knees were placed in formalin. Following 1-2 days in fixative and 4-5 days in decalcifier, the ankle joints were cut in half longitudinally, and the knees were cut in half in the frontal plane. The joints were then processed, embedded, sectioned and stained with toluidine blue. Collagen arthritic ankles and knees were given scores of 0-5 for inflammation, pannus formation and bone resorption according to the following criteria:
• 0 Normal • 1 Minimal infiltration of inflammatory cells in periarticular tissue • 2 Mild infiltration • 3 Moderate infiltration with moderate edema • 4 Marked infiltration with marked edema • 5 Severe infiltration with severe edema
• 0 Normal • 1 Minimal infiltration of pannus in cartilage and subchondral bone • 2 Mild infiltration (extends over up to ¼ of surface or subchondral area of tibia or femur) • 3 Moderate infiltration (extends over >¼ but <½ of surface or subchondral area of tibia or femur) • 4 Marked infiltration (extends over ½ to ¾ of tibial or femoral surface) • 5 Severe infiltration (covers >¾ of surface)
• 0 Normal • 1 Minimal: minimal to mild loss of toluidine blue staining with no obvious chondrocyte loss or collagen disruption • 2 Mild: mild loss of toluidine blue staining with focal mild (superficial) chondrocyte loss and/or collagen disruption • 3 Moderate: moderate loss of toluidine blue staining with multifocal to diffuse moderate (depth to middle zone) chondrocyte loss and/or collagen disruption • 4 Marked: marked loss of toluidine blue staining with multifocal to diffuse marked (depth to deep zone) chondrocyte loss and/or collagen disruption • 5 Severe: severe diffuse loss of toluidine blue staining with multifocal severe (depth to tide mark) chondrocyte loss and/or collagen disruption on both femur and tibia
• 0 Normal • 1 Minimal: small areas of resorption, not readily apparent on low magnification, rare osteoclasts • 2 Mild: more numerous areas of resorption, definite loss of subchondral bone involving ¼ of tibial or femoral surface (medial or lateral) • 3 Moderate: obvious resorption of subchondral bone involving >¼ but <½ of tibial or femoral surface (medial or lateral) • 4 Marked: obvious resorption of subchondral bone involving ≧½ but <¾ of tibial or femoral surface (medial or lateral) • 5 Severe: distortion of entire joint due to destruction involving >¾ of tibial or femoral surface (medial or lateral)

[2] = 0.5 μg/kg once daily i.v., vs vehicle control
[3] = 5.0 μg/kg once daily i.v., vs vehicle control
[4] = 0.3 mg/kg twice daily i.v., days 8 to 19, FIG. 3

## CC[C@@H](O)/C=C/C=C\C[C@@H](O)/C=C/C=C/C=C\[C@@H](O)CCCC(=O)O [Compound X]
[1]; mice n=15, 5 μg/kg twice daily iv, vs vehicle control, FIG. 1
  score of bone damage (histologic scoring in joints): significant decrease
[1]; 0.5 μg/kg once daily i.v.
  clinical symptoms of arthritis (clinical scoring in the paws): inhibited
[1]; [2]
  bone loss (histologic scoring): reduced
  pannus formation (histologic scoring): reduced
[1]; 5.0 μg/kg once daily i.v.
  clinical symptoms of arthritis (clinical scoring in the paws): inhibited
[1]; [3]
  bone loss (histologic scoring): reduced
  pannus formation (histologic scoring): reduced
Rats with CIA; [4]
  bone resorption (knee histopathology scoring): significant reduction
  cartilage damage (knee histopathology scoring): significant reduction
  inflammation (knee histopathology scoring): significant reduction
  pannus (knee histopathology scoring): significant reduction
Rats with CIA; therapeutic dosing, FIG. 3
  knee histopathology scores: significantly reduced
Rats with CIA; therapeutic dosing, FIG. 4
  bone resorption: protected
  joint damage: protected
